PubChem BioAssay AID256 (DTP/NCI, 2004)
Where “and” joins values, the source holds several entries; their conditions need not be identical. Identical values can stand only once. Inconclusive results and toxic doses are left out.

Tested on: CD2F1 mice, L1210 leukemia ip, survival T/C
Assay: NCI In Vivo Anticancer Drug Screen. Data for tumor model L1210 Leukemia (intraperitoneal) in CD2F1 (CDF1) mice
Settings: higher = longer survival
Outline: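 Compound-dosed mice with transplantable tumor versus matched vehicle controls; endpoint ratio T/C reported.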

[1] = endpoint: mean survival time, dose: 25.0 mg/kg/injection, schedule: Q04DX003 (ip), vehicle: saline with Tween-80
[2] = endpoint: mean survival time, dose: 50.0 mg/kg/injection, schedule: Q04DX003 (ip), vehicle: saline with Tween-80
[3] = endpoint: mean survival time, dose: 100.0 mg/kg/injection, schedule: Q04DX003 (ip), vehicle: saline with Tween-80

With `CCOP(=O)(N1CC1(C)C)N1CC1(C)C` (stereo not given) as the molecule, how does the T/C (endpoint: mean survival time, dose: 5.0 mg/kg/injection, schedule: Q01DX009 (ip), vehicle: saline) read?
The T/C was 104 % of control.

And the T/C (endpoint: mean survival time, dose: 10.0 mg/kg/injection, schedule: Q01DX009 (ip), vehicle: saline)?
Its T/C is 114 % of control.

What about the T/C (endpoint: mean survival time, dose: 30.0 mg/kg/injection, schedule: Q01DX009 (ip), vehicle: saline) of the same molecule?
The T/C was 162 % of control.

What about the T/C (endpoint: mean survival time, dose: 50.0 mg/kg/injection, schedule: Q01DX009 (ip), vehicle: saline) of the same molecule?
Its T/C is 225 % of control.

What about the T/C (endpoint: mean survival time, dose: 80.0 mg/kg/injection, schedule: Q01DX009 (ip), vehicle: saline) of the same molecule?
Its T/C is 307 % of control.

And the T/C (endpoint: mean survival time, dose: 120.0 mg/kg/injection, schedule: Q01DX009 (ip), vehicle: saline)?
Its T/C is 102 % of control.

With `O=c1oc2c(ccc3ccccc32)c(O)c1-c1ccccc1` as the molecule, how does the T/C (endpoint: mean survival time, dose: 50.0 mg/kg/injection, schedule: Q01DX009 (ip), vehicle: saline with Tween-80) read?
Its T/C is 103 % of control.

What about the T/C (endpoint: mean survival time, dose: 100.0 mg/kg/injection, schedule: Q01DX009 (ip), vehicle: saline with Tween-80) of the same molecule?
The T/C was 103 % of control.

With `O=C(NC(CSC(c1ccc(Cl)cc1)c1ccc(Cl)cc1)C(=O)O)OCc1ccccc1` (stereo not given) as the molecule, how does the T/C (endpoint: mean survival time, dose: 75.0 mg/kg/injection, schedule: Q01DX001 (ip), vehicle: saline) read?
Its T/C is 91 % of control.

And the T/C (endpoint: mean survival time, dose: 300.0 mg/kg/injection, schedule: Q01DX001 (ip), vehicle: saline)?
Its T/C is 97 % of control.

For `C[N+](C)(C)Cc1c[nH]c2ccccc12`, which T/C (endpoint: mean survival time, dose: 100.0 mg/kg/injection, schedule: Q01DX001 (ip), vehicle: saline with Tween-80) is on record?
The T/C was 94 % of control.

And the T/C (endpoint: mean survival time, dose: 200.0 mg/kg/injection, schedule: Q01DX001 (ip), vehicle: saline with Tween-80)?
The T/C was 91 % of control.

And the T/C (endpoint: mean survival time, dose: 400.0 mg/kg/injection, schedule: Q01DX001 (ip), vehicle: saline with Tween-80)?
Its T/C is 96 % of control.

Which results are given for `O=C(O)c1ccc(Cl)cc1Nc1ccc(Cl)cc1`?
T/C (endpoint: mean survival time, dose: 12.5 mg/kg/injection, schedule: Q04DX003 (ip), vehicle: saline with Tween-80): 97 % of control; T/C [1]: 100 % of control; T/C [2]: 107 % of control; T/C [3]: 98 % of control

`C=C1C(=O)OC2CC1C(OC(C)=O)CC1(C)OC1CCC1(C)OC1CCC2(C)O` (stereo not given) was tested. Which T/C (endpoint: mean survival time, dose: 6.25 mg/kg/injection, schedule: Q01DX009 (ip), vehicle: Klucel (hydroxypropylcellulose) (HPC)) did it give?
Its T/C is 102 % of control.

What about the T/C (endpoint: mean survival time, dose: 12.5 mg/kg/injection, schedule: Q01DX009 (ip), vehicle: Klucel (hydroxypropylcellulose) (HPC)) of the same molecule?
Its T/C is 107 % of control.

And the T/C (endpoint: mean survival time, dose: 25.0 mg/kg/injection, schedule: Q01DX009 (ip), vehicle: Klucel (hydroxypropylcellulose) (HPC))?
Its T/C is 105 % of control.

With `[Cl][Pt+2][Cl].[NH-]C(C(=O)O)c1ccccc1.[NH-]C(C(=O)O)c1ccccc1` (stereo not given) as the molecule, how does the T/C (endpoint: median survival time, dose: 3.12 mg/kg/injection, schedule: Q04DX003 (ip), vehicle: saline) read?
The T/C was 103 % of control.

And the T/C (endpoint: median survival time, dose: 6.25 mg/kg/injection, schedule: Q04DX003 (ip), vehicle: saline)?
The T/C was 103 % of control.

And the T/C (endpoint: median survival time, dose: 12.5 mg/kg/injection, schedule: Q04DX003 (ip), vehicle: saline)?
The T/C was 100 % of control.

And the T/C (endpoint: median survival time, dose: 25.0 mg/kg/injection, schedule: Q04DX003 (ip), vehicle: saline)?
Its T/C is 107 % of control.

And the T/C (endpoint: median survival time, dose: 50.0 mg/kg/injection, schedule: Q04DX003 (ip), vehicle: saline)?
Its T/C is 101 % of control.

What about the T/C (endpoint: median survival time, dose: 100.0 mg/kg/injection, schedule: Q04DX003 (ip), vehicle: saline) of the same molecule?
The T/C was 123 % of control.

With `CC1C=COCCO1` (stereo not given) (tested in a mixture with another compound) as the molecule, how does the T/C (endpoint: mean survival time, dose: 100.0 mg/kg/injection, schedule: Q04DX003 (ip), vehicle: acetone) read?
The T/C was 97 % of control.

What about the T/C (endpoint: mean survival time, dose: 200.0 mg/kg/injection, schedule: Q04DX003 (ip), vehicle: acetone) of the same molecule?
Its T/C is 98 % of control.

What about the T/C (endpoint: mean survival time, dose: 400.0 mg/kg/injection, schedule: Q04DX003 (ip), vehicle: acetone) of the same molecule?
Its T/C is 98 % of control.

With `CC(C)(C)OC(=O)N1CCCC1C(=O)Oc1ccc([N+](=O)[O-])cc1` (stereo not given) as the molecule, how does the T/C [1] read?
The T/C was 98 % of control.

And the T/C [2]?
The T/C was 95 % of control.

And the T/C [3]?
Its T/C is 92 % of control and 93 % of control.

Which results are given for `OC(Cc1nc2ccccc2[nH]1)c1nc2ccccc2[nH]1` (stereo not given)?
T/C (endpoint: mean survival time, dose: 50.0 mg/kg/injection, schedule: Q01DX009 (ip), vehicle: Klucel (hydroxypropylcellulose) (HPC)): 104 % of control; T/C (endpoint: mean survival time, dose: 100.0 mg/kg/injection, schedule: Q01DX009 (ip), vehicle: Klucel (hydroxypropylcellulose) (HPC)): 97 % of control; T/C (endpoint: mean survival time, dose: 200.0 mg/kg/injection, schedule: Q01DX009 (ip), vehicle: Klucel (hydroxypropylcellulose) (HPC)): 101 % of control

With `Clc1ccc2c(Cl)c3c(nc2c1)CCCC3` as the molecule, how does the T/C (endpoint: mean survival time, dose: 100.0 mg/kg/injection, schedule: Q01DX001 (ip), vehicle: saline) read?
The T/C was 100 % of control.

What about the T/C (endpoint: mean survival time, dose: 200.0 mg/kg/injection, schedule: Q01DX001 (ip), vehicle: saline) of the same molecule?
Its T/C is 100 % of control.

Which T/C (endpoint: mean survival time, dose: 100.0 mg/kg/injection, schedule: Q04DX002 (ip), vehicle: saline with Tween-80) does the source give for `Cc1cc(=O)n(C2CCCCC2)c(=NC2CCCCC2)o1` here?
Its T/C is 100 % of control.

And the T/C (endpoint: mean survival time, dose: 200.0 mg/kg/injection, schedule: Q04DX002 (ip), vehicle: saline with Tween-80)?
The T/C was 95 % of control.

And the T/C (endpoint: mean survival time, dose: 400.0 mg/kg/injection, schedule: Q04DX002 (ip), vehicle: saline with Tween-80)?
Its T/C is 95 % of control.
